{"source": "patent US20230158091A1", "about": "“C[…] CARRIER” (New York Medical College, priority 2020, published 2023)", "key": {"[1]": {"system": "rats with cortical contusion injury (TBI)", "experiment": "Spontaneous alternating T-maze after TBI", "type": "in vivo, rat", "protocol": "(§1) Cortical Contusion Injury. Adult male and female Sprague-Dawley and Wistar rats (225-350 gm) received a moderately severe cortical impact injury under anesthesia with a controlled weight drop apparatus mounted on a stereotactic apparatus. Anesthesia was induced with ketamine/xylazine (60/6 mg/kg i.p.). A midline incision was performed to expose the skull. The dura was exposed with a 4.4-mm craniotomy centered at 1.4-mm posterior and 2.4-mm lateral to the bregma for placement of the 4-mm diameter foot-plate of the contusion apparatus. Contusion injury force of 600 g/cm was produced with a 20-g weight and dropping distance of 30-cm. The 20-g weight was released into a vertical guided tube that strikes the foot plate positioned at the end of the tube which is in contact with the dura. To avoid brain penetration, the foot-plate was prevented by a guide from moving greater than 2.5-mm into the dura.\n(§2) Drug Administration. Rats in the TBI+CBD group received the gelfoam sponge infused with CBD (20.0 mg/ml) directly to the open contusion site overlying the dura within 2 min after the weight was removed from the apparatus. CBD was also administered systemically 10 min following surgery at 40 mg/kg followed by 20 mg/kg for all other injection days. TBI rats received gelfoam with coconut or olive oil directly onto the open contusion site overlying the dura following their respective surgical contusions. TBI rats also received vehicle, either coconut oil, olive oil, or PBS systemically at equal volumes that were administered to CBD treated animals according to weight (0.1-0.4 cc).\nThe spontaneous alternating T-maze was utilized at 3 and 28 days following TBI or TBI+CBD in order to assess spatial sense, memory and cognitive ability. Naïve untreated rats spontaneously alternated between left and right arms. There was a tendency of asymmetry to the left arm, but the number of entries was not great enough to exclude the possibility that the difference was due to random sampling variability (L: 6.3±1.7 vs. R: 4.7±0.52, N=10, two-tailed t=2.1, df=18, p=0.05). At 3 days following TBI to the left hemisphere, arm entry was impaired."}, "[2]": {"system": "rats with cortical contusion injury (TBI)", "experiment": "Novel Object Recognition test after TBI", "type": "in vivo, rat", "protocol": "as §1, §2\nThe Novel Object Recognition test was utilized to evaluate the short-term and working memory of the TBI+CBD group compared to control TBI levels at 27-29 days and naive untreated young rats. Following habituation, animals could explore an open field with two objects for 3 consecutive days by introducing two same objects on day 1 and adding a novel object on days 2 and 3 without visual cues."}, "[3]": {"system": "rats with cortical contusion injury (TBI)", "experiment": "Cortical contusion injury (weight drop TBI), lesion histology", "type": "in vivo, rat", "protocol": "as §1, §2\nAfter direct delivery of the CBD internal gelatinized matrix, dental acrylic was used to close the wound. Animals became active 30-40 min following surgery.\nFIG. 5 depicts schematic overview perspectives of an internal CBD absorbable medical carrier applied to the internal brain wound in the rat with systemic supplementation."}, "[4]": {"system": "rats with cortical contusion injury (TBI)", "experiment": "Beam balance test (vestibulomotor function) after TBI", "type": "in vivo, rat", "settings": "compared to TBI untreated rats; day 14 through day 28", "protocol": "as §1\nDrug Administration. Rats in the TBI+CBD group received the gelfoam sponge infused with CBD (20.0 mg/ml) directly to the open contusion site overlying the dura within 2 min after the weight was removed from the apparatus. CBD was also administered systemically 10 min following surgery at 40 mg/kg followed by 20 mg/kg for all other injection days. […]\nVestibulomotor function was determined with the beam balance test in the TBI untreated and TBI+CBD treated rats. […]"}, "[5]": {"settings": "cited from earlier work"}, "[6]": {"system": "rats with spinal cord contusion (SCI)", "experiment": "Spinal cord contusion (SCI), lesion and locomotor recovery", "type": "in vivo, rat", "description": "FIG. 6 depicts schematic overview perspectives of an internal CBD absorbable medical carrier applied to the internal wound in the rat with systemic supplementation with a spinal cord contusion (SCI)."}, "[7]": {"system": "rats with cortical contusion injury (TBI)", "experiment": "Cortical contusion injury, hippocampal cell counts after H&E staining", "type": "in vivo, rat", "protocol": "as §1, §2\nIn the contralateral CAL injured cells were intermingled among healthy appearing round cell bodies. […] In contrast to the TBI+vehicle group, the ipsilateral hippocampus was predominantly intact in all CBD treated animals but with disproportional levels of injured cells throughout the subfields. There were varied numbers of pyknotic, acidophilic, irregular shaped CA1 and CA3a (not illustrated) neurons.\nSince 9 of 13 animals from the TBI+vehicle group had spared ipsilateral hippocampal tissue, counting of injured vs. healthy appearing cells of the CA1 subregion was carried out in a subset of animals from the TBI+vehicle group and compared with the CBD treated group to estimate whether injury on one side is related to the amount of injury on the other side. Measurements of the CA1 area and total volumetric measurements of the ipsilateral hemisphere were used for correlating ipsilateral injury with ipsilateral and contralateral hippocampal cellular injury."}, "[8]": {"settings": "comparison of both hemispheres, p=0.037"}}, "note": "Entries after “also recorded” stand apart in the source; their conditions may differ. Read-outs that look alike come from different tables or passages of the source.", "data": [{"molecule": "C=C(C)[C@@H]1CCC(C)=C[C@H]1c1c(O)cc(CCCCC)cc1O", "note": "[CBD, cannabidiol]", "values": [{"measurement": "time to choose right or left", "setting": "[1]; 3 or 28 days post-injury, not significantly different from TBI+vehicle", "value": "13 to 33", "unit": "s"}, {"measurement": "asymmetry of arm entry to the left", "setting": "[1]; 3 days following TBI to the left hemisphere", "value": "highly significant"}, {"measurement": "percent alternating in T-maze", "setting": "[1]; 28 days after TBI, TBI 17.5±11.8%", "value": "52.5±8.53", "unit": "%"}, {"measurement": "spontaneous alternation (in words)", "setting": "[1]; after 28 days", "value": "significant increase in percent alternating"}, {"measurement": "overall mobility", "setting": "[2]; 27-29 days post-TBI", "value": "greater than TBI rats and similar to naïve untreated controls"}, {"measurement": "speed of travel", "setting": "[2]; 27-29 days post-TBI, p=0.032", "value": "greater speed than TBI rats"}, {"measurement": "distance travelled", "setting": "[2]; averaged from days 2+3 of testing, 27-29 days post-TBI, p=0.03", "value": "greater distance than TBI+vehicle treated rats"}, {"measurement": "number of episodes of interacting with old and novel objects", "setting": "[2]; compared to TBI rats, not significantly different from naïve rats", "value": "much greater"}, {"measurement": "time spent with the novel object", "setting": "[2]; compared to TBI, not significantly different from naïve rats", "value": "much greater"}, {"measurement": "area affected, normalized to TBI+vehicle treated group", "setting": "[3]; Bregma AP 1.2 to −6.8, local sponge plus systemic CBD, p=0.0008", "value": "34.04±6.38", "unit": "%"}, {"measurement": "ipsilateral cortical/hippocampal lesion volume", "setting": "[3]; approximated from 12 levels, 4 weeks after TBI, gelfoam sponge with CBD 20.0 mg/ml at contusion site plus systemic CBD 40 then 20 mg/kg, TBI+vehicle 69.85±7.2", "value": "21.4±3.5", "unit": "mm^3"}, {"measurement": "lesion size after brain contusion (in words)", "setting": "[3]; compared to contusion alone / TBI+vehicle", "value": "reduced ipsilateral lesion size; also recorded: decreased the size of the ipsilateral lesion"}, {"measurement": "total anterior to posterior lesion measurement", "setting": "[3]; local sponge plus systemic CBD, TBI control 6.586±0.2, p=0.008", "value": "5.867±0.17", "unit": "mm"}, {"measurement": "lesion area at posterior levels (Bregma AP: −6.8 or further)", "setting": "[3]; local sponge plus systemic CBD, comparison value 1.22±0.35, p=0.347", "value": "0.92±0.17", "unit": "mm^2"}, {"measurement": "beam balance performance / vestibulomotor function (in words)", "setting": "[4]", "value": "improved balance and locomotor function within a few days; also recorded: significant improvement"}, {"measurement": "absorbed in the body", "setting": "[5]; ingestion", "value": "5-20%"}, {"measurement": "absorbed in the body", "setting": "[5]; vaping or smoking", "value": "30-60%"}, {"measurement": "locomotor recovery after spinal cord contusion (in words)", "setting": "[6]; aged female rats, weeks 5 and 6 with continued CBD treatment", "value": "significant locomotor improvement"}, {"measurement": "spinal cord lesion area / tissue preservation (Luxol Fast Blue, in words)", "setting": "[6]; internal CBD carrier plus 1 week of daily CBD injections and 3 weeks of intermittent CBD treatment", "value": "reduced volumetric lesion area"}, {"measurement": "hippocampal injury at the cellular level (H&E, in words)", "setting": "[7]; CBD local and peripheral delivery system", "value": "partially attenuated"}, {"measurement": "contralateral hippocampus hilus irregular stained/injured cells", "setting": "[7]; TBI+vehicle 30.4 4.17, p=0.002", "value": "7.63±1.86"}, {"measurement": "contralateral hippocampus CA1 irregular stained/injured cells", "setting": "[7]; TBI+vehicle 53.3±10.9, p=0.045", "value": "14.22±2.2"}, {"measurement": "number of injured CA1 neurons, contralateral side (comparison of both hemispheres)", "setting": "[7]; [8]", "value": "14.21±2.29"}, {"measurement": "number of injured CA1 neurons, ipsilateral side", "setting": "[7]; [8]", "value": "172.75±70"}, {"measurement": "percent of CA1 contralateral injured cell counts relative to TBI+vehicle", "setting": "[7]; relative to TBI+vehicle", "value": "26.7±4.37", "unit": "%"}, {"measurement": "ratio of ipsilateral injured CA1 neurons to healthy appearing CA1 pyramidal neurons", "setting": "[7]; versus TBI+vehicle", "value": "unchanged"}]}]}
